Results reported in patent US20260355115A1, “SUSTAINED-RELEASE MICROSPHERES INCLUDING GLP-1 RECEPTOR AGONIST OR PHARMACEUTICALLY ACCEPTABLE SALT THEREOF AND USE THEREOF” (PEPTRON, INC., priority 2022, published 2026).

Key:
[1] = Pharmacokinetic profile of sustained-release formulation in minipigs (s.c., LC-MS/MS of blood); type: in vivo; conditions: 0.08 mpk
Method: Next, in order to evaluate the pharmacokinetics in medium-sized animals, the sustained-release formulation of Example 3 according to the present invention was administered to minipigs, and the drug release patterns within the microspheres in the body were evaluated.
After subcutaneous injection (S.C) of drug at a dose of 0.08 mpk (mg/kg) into 20 to 30 kg of male SPF minipigs, the blood concentration of semaglutide was observed over time. A 2.5 ml of blood was collected from the jugular vein at 1 hour, 6 hours, 12 hours, 24 hours, 2 days, 3 days, 5 days, 7 days, 9 days, 11 days, 14 days, 16 days, 18 days, 21 days, 24 days, 28 days, 31 days, 35 days, 42 days, 49 days, 56 days, 63 days, and 70 days (total 23 points) after injection, respectively, stored at −80 °C, and then subjected to LC-MS/MS analysis.

[2] = Evaluation of anti-obesity efficacy in diet-induced obesity (DIO) mouse model; type: in vivo, C57BL/6J-DIO mice; conditions: 0.1 mpk s.c. QD, 8 weeks, 60% HFD
Method: The sustained-release formulation of Example 3 according to the present invention was administered to a diet-induced obesity (DIO) mouse model to confirm the anti-obesity efficacy.
Sixteen-week-old male C57BL/6J and C57BL/6J-DIO mice (The Jackson Laboratory (JAX), Saeron Bio) were used in the study. After introduction, the mice were sufficiently fed with a regular chow diet (5 kcal % of fat, PicoLab, #5053, USA) or a high fat diet (60 kcal % of fat, Research diet, D12492, USA) together with water, maintained at a temperature of 22±2 °C and a humidity of 50±10%, and acclimated in individual cages under an automatically controlled 12-hour light/dark cycle (dark: 7 pm to 7 am). After one week of acclimation, all prepared subjects were administered and acclimated, and clinical signs (activity, stool abnormalities, bleeding, wounds, deformities, skin, hair, eye abnormalities, etc.) were observed twice a day (when administered in the morning and when monitored in the afternoon).
To evaluate body weight and food intake, the drug was administered for 8 weeks under conditions described in Table 6, and body weight (FX-2000i, A&D company, 0.01 to 2200 g) and food intake (CSG201F, OHAUS, 0.1 g to 200 g) were measured daily starting from the first day of administration. All result values were expressed as the mean±standard error, and the statistical significance of the group was calculated through an independent t-test between test substance administration groups.
The body weight measurement results were shown in FIG. 5A, and the body weight gain rate (ΔBody weight from baseline (vs Con(-)), %) was shown in FIG. 5B. This was shown as the body weight change (%) calculated by comparing the drug-administered groups to the negative control group.

Question: With `CC[C@H](C)[C@H](NC(=O)[C@H](Cc1ccccc1)NC(=O)[C@H](CCC(=O)O)NC(=O)[C@H](CCCCNC(=O)COCCOCCNC(=O)COCCOCCNC(=O)CC[C@H](NC(=O)CCCCCCCCCCCCCCCCC(=O)O)C(=O)O)NC(=O)[C@H](C)NC(=O)[C@H](C)NC(=O)[C@H](CCC(N)=O)NC(=O)CNC(=O)[C@H](CCC(=O)O)NC(=O)[C@H](CC(C)C)NC(=O)[C@H](Cc1ccc(O)cc1)NC(=O)[C@H](CO)NC(=O)[C@H](CO)NC(=O)[C@@H](NC(=O)[C@H](CC(=O)O)NC(=O)[C@H](CO)NC(=O)[C@@H](NC(=O)[C@H](Cc1ccccc1)NC(=O)[C@@H](NC(=O)CNC(=O)[C@H](CCC(=O)O)NC(=O)C(C)(C)NC(=O)[C@@H](N)Cc1cnc[nH]1)[C@@H](C)O)[C@@H](C)O)C(C)C)C(=O)N[C@@H](C)C(=O)N[C@@H](Cc1c[nH]c2ccccc12)C(=O)N[C@@H](CC(C)C)C(=O)N[C@H](C(=O)N[C@@H](CCCNC(=N)N)C(=O)NCC(=O)N[C@@H](CCCNC(=N)N)C(=O)NCC(=O)O)C(C)C` [semaglutide, N^6,26-{18-[N-(17carboxyheptadecanoyl)-L-γ-glutamyl]-10-oxo-3,6,12,15-tetraoxa-9,18-diazaoctanoyl}-[8 (2-amino-2-propanoic acid), 34-L-arginine] human glucagon-like peptide 1(7-37)] as the molecule, how does the “Initial burst release or delayed release” value ([1]; formulation containing the microspheres of Example 3) read?
Answer: no initial burst release or delayed release in minipigs

Question: What about the “Release duration of semaglutide” value ([1]; formulation containing the microspheres of Example 3, compared with S.D. rats) of the same molecule?
Answer: longer in minipigs

Question: And the “Body weight loss rate (ΔBody weight from baseline vs Con(-))” value [2]?
Answer: statistically significant (p<0.05) body weight loss rate

Question: What about the “Body weight vs negative control group” value [2] of the same molecule?
Answer: statistically significant decrease (p<0.05) in body weight

Question: What about the “Food intake vs negative control group” value [2] of the same molecule?
Answer: statistically significant decrease (p<0.05) in food intake
